Results from patent publication US7186824B2, “Reduction inhibitory agent for active-oxygen eliminating activity” (Kabushiki Kaisha Hayashibara Seibutsu Kagaku Kenkyujo, priority 1997, dated 2007).

Legend:
Assay type in all cases: biochemical
[1] = Active-oxygen eliminating activity of superoxide dismutase and antioxidants in water or trehalose solution before/after storage (NBT test); settings: for Activity (unit/mg antioxidant) Before storage: in trehalose solution, trehalose concentration 45%; for Activity (unit/mg antioxidant) After storage: light-shielded
Protocol: (§1) Fresh raw carrots were disrupted by a mixer, and 10% of either of saccharides, d.s.b., was added to the mixture and dissolved therein. The solution was dried under reduced pressures at 40° C. for two days, dried in vacuo at the same temperature for 24 hours, and pulverized by a mixer into a powdery carrot composition. The saccharides used were commercialized reagents of glucose, mannitol, sorbitol, maltose, sucrose, trehalose, and pullulan. An about 100 g of the composition was placed and sealed in a 500-ml polystyrene container, and stored at 40° C. for seven days. The active-oxygen eliminating activity of the composition before and after the storage were compared. The assay for the active-oxygen eliminating activity followed the nitroblue tetrazolium test by Toshio IMANARI et at in Igakuno Ayumi, Vol. 101, pp. 496–497 (1977); the level of superoxide, formed in a xanthine-xanthine oxidase system, was assayed by quantifying calorimetrically the content of formazan formed by reducing NBT. As a control, refined water was used as a test solution. One unit activity of active-oxygen eliminating activity is defined as that inhibits 50% formazan formation as compared with the control. […] The reduction inhibitory activity of trehalose was strongly higher than that of glucose as the constituent saccharide for trehalose, and that of maltose as a disaccharide consisting of two glucose units similar to trehalose. Thus trehalose is suitably used as an effective ingredient for a reduction inhibitory agent for active-oxygen eliminating activity.
In one milliliter of a 45 w/v % trehalose solution was dissolved five micrograms of superoxide dismutase from a horseradish-commercialized by Sigma Chemical Co., St. Louise, USA, 10 mg α-glucosyl hesperidin commercialized by Hayashibara Biochemical Laboratories, Inc., Okayama, Japan, 10 mg α-glucosyl rutin commercialized by Hayashibara Biochemical Laboratories, Inc., Okayama, Japan, 250 μg gallic acid commercialized by Wako Pure Chemical Industries, Ltd., Tokyo, Japan, or 50 μg catechin to obtain a liquid composition. Each of the compositions was placed in a glass test tube, sealed with a rubber cap, and stored under light-shielded conditions. As a control, water was used in place of the trehalose solution. […] Mere mixing of a powdery crystalline trehalose hydrate and either of the powdery antioxidants into a powdery mixture, almost no change of the active-oxygen eliminating activity was observed when subjected to storage test similarly as above.

[2] = Influence of saccharides on active-oxygen eliminating activity of powdery carrot composition before/after storage (NBT test); settings: compared among the saccharides tested, 40° C. seven days
Protocol: Fresh raw carrots were disrupted by a mixer, and 10% of either of saccharides, d.s.b., was added to the mixture and dissolved therein. The solution was dried under reduced pressures at 40° C. for two days, dried in vacuo at the same temperature for 24 hours, and pulverized by a mixer into a powdery carrot composition. The saccharides used were commercialized reagents of glucose, mannitol, sorbitol, maltose, sucrose, trehalose, and pullulan. An about 100 g of the composition was placed and sealed in a 500-ml polystyrene container, and stored at 40° C. for seven days. The active-oxygen eliminating activity of the composition before and after the storage were compared. The assay for the active-oxygen eliminating activity followed the nitroblue tetrazolium test by Toshio IMANARI et at in Igakuno Ayumi, Vol. 101, pp. 496–497 (1977); the level of superoxide, formed in a xanthine-xanthine oxidase system, was assayed by quantifying calorimetrically the content of formazan formed by reducing NBT. As a control, refined water was used as a test solution. One unit activity of active-oxygen eliminating activity is defined as that inhibits 50% formazan formation as compared with the control. […]

[3] = Influence of trehalose concentration on active-oxygen eliminating activity of powdery carrot composition before/after storage (NBT test); settings: for Activity (unit/g) After storage / Percentage of residual activity (%): 40° C. for seven days; for Activity (unit/g) Before storage: powdery carrot composition
Protocol: as §1
Similarly as in Experiment 1, 0–20% of trehalose, d.s.b., was mixed with and dissolved in a disrupted carrot. The resulting each mixture was dried in vacuo at 40° C. for 24 hours, and pulverized into a powdery carrot composition. Similarly as in Experiment 1, each powdery composition was placed and sealed in a polystyrene container, and stored at 40° C. for seven days for evaluating the reduction inhibitory activity for active-oxygen eliminating activity. […] Based on the data from Table 2, at least of about one percent, preferably, at least of about five percent, and more preferably, at least of about 20% of trehalose, d.s.b., exerted a desired effective reducing inhibitory activity for active-oxygen eliminating activity.

[4] = trehalose 0%, stored 80° C. 5 days
[5] = trehalose 45%, stored 80° C. 5 days
[6] = 0.1% trehalose added to carrot (content 1.0% d.s.b.)
[7] = 0.5% trehalose added to carrot (content 4.9% d.s.b.)
[8] = 1.0% trehalose added to carrot (content 9.4% d.s.b.)
[9] = 2.5% trehalose added to carrot (content 20.7% d.s.b.)
[10] = 5.0% trehalose added to carrot (content 34.2% d.s.b.)
[11] = 10.0% trehalose added to carrot (content 51.1% d.s.b.)
[12] = 20.0% trehalose added to carrot (content 67.6% d.s.b.)
[13] = trehalose 45%, stored 25° C. 20 hours

## O=C(O)c1cc(O)c(O)c(O)c1 [Gallic acid, gallic acid]
[1]
  Activity (unit/mg antioxidant) Before storage: 570 unit/mg antioxidant
[1]; [4]
  Activity (unit/mg antioxidant) After storage: 390 unit/mg antioxidant
[1]; [5]
  Residual activity (%): 82%
  Activity (unit/mg antioxidant) After storage: 470 unit/mg antioxidant

## OC[C@H]1O[C@H](O[C@H]2O[C@H](CO)[C@@H](O)[C@H](O)[C@H]2O)[C@H](O)[C@@H](O)[C@@H]1O [Trehalose, α,α-trehalose]
[2]
  reduction inhibitory activity for active-oxygen eliminating activity (in words): strong effect
[3]; [6]
  Activity (unit/g) After storage: 400 unit/g
  Percentage of residual activity (%): 43%
  Activity (unit/g) Before storage: 930 unit/g
[3]; [7]
  Activity (unit/g) After storage: 460 unit/g
  Percentage of residual activity (%): 61%
  Activity (unit/g) Before storage: 750 unit/g
[3]; [8]
  Activity (unit/g) After storage: 480 unit/g
  Percentage of residual activity (%): 56%
  Activity (unit/g) Before storage: 860 unit/g
[3]; [9]
  Activity (unit/g) After storage: 460 unit/g
  Activity (unit/g) Before storage: 700 unit/g
[3]; [10]
  Activity (unit/g) After storage: 370 unit/g
  Percentage of residual activity (%): 62%
  Activity (unit/g) Before storage: 600 unit/g
[3]; [11]
  Activity (unit/g) After storage: 330 unit/g
  Percentage of residual activity (%): 83%
  Activity (unit/g) Before storage: 400 unit/g
[3]; [12]
  Activity (unit/g) After storage: 240 unit/g
  Percentage of residual activity (%): 63%
  Activity (unit/g) Before storage: 380 unit/g

## Superoxide dismutase
[1]
  Activity (unit/mg antioxidant) Before storage: 11,000 unit/mg antioxidant
[1]; trehalose 0%, stored 60° C. 17 hours
  Activity (unit/mg antioxidant) After storage: 4,600 unit/mg antioxidant
[1]; trehalose 45%, stored 60° C. 17 hours
  Activity (unit/mg antioxidant) After storage: 9,400 unit/mg antioxidant

## catechin
[1]
  Activity (unit/mg antioxidant) Before storage: 380 unit/mg antioxidant
[1]; trehalose 0%, stored 25° C. 20 hours
  Activity (unit/mg antioxidant) After storage: 2.2 unit/mg antioxidant
[1]; [13]
  Residual activity (%): 82%
  Activity (unit/mg antioxidant) After storage: 310 unit/mg antioxidant

## α-glucosyl hesperidin
[1]
  Activity (unit/mg antioxidant) Before storage: 3.6 unit/mg antioxidant
[1]; [4]
  Activity (unit/mg antioxidant) After storage: 1.0 unit/mg antioxidant
[1]; [5]
  Residual activity (%): 67%
  Activity (unit/mg antioxidant) After storage: 2.4 unit/mg antioxidant

## α-glucosyl rutin
[1]; [4]
  Activity (unit/mg antioxidant) After storage: 18 unit/mg antioxidant
[1]; [5]
  Activity (unit/mg antioxidant) After storage: 22 unit/mg antioxidant
